Experimental data taken from article PMC5740067 (Scientific Reports, 2017).
“Also recorded” adds a separate entry of the source. Where two headings read alike, the source gives them in different places.

Tests used:
NocT G97S [1] = biological target: T1, NocT G97S (Agrobacterium fabrum, UniProt P35120, G97S); format: binding, Agrobacterium tumefaciens; settings: intrinsic protein fluorescence titration, 20 °C, pH 8.0
T1 construct: Cloning of mature OccJ, NocT-G97S, OccJ-S91G, OccJ-N202D, LAO and LAO-Q122A; made in house; host or cells: E. coli BL21
T1 sequence (P35120 26-283 G97S): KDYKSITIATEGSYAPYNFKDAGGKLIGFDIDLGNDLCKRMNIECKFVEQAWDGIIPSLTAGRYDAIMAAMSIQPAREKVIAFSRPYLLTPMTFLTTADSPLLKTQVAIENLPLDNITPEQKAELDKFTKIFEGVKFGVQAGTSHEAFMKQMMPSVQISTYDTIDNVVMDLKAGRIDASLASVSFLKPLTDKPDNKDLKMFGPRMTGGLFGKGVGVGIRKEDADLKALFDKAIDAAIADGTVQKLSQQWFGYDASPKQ

OccJ S91G [2] = biological target: T2, OccJ S91G (Agrobacterium tumefaciens, UniProt P0A4F8, S91G); experiment: OccJ S91G ligand binding, fluorescence titration; settings: intrinsic protein fluorescence titration
T2 construct: The mature LAO expression plasmid, LAO-Q122A, OccJ-S91G and OccJ-N202D were chemically synthesized; pET-28a); host or cells: E. coli BL21
T2 sequence (P0A4F8 21-276 S91G): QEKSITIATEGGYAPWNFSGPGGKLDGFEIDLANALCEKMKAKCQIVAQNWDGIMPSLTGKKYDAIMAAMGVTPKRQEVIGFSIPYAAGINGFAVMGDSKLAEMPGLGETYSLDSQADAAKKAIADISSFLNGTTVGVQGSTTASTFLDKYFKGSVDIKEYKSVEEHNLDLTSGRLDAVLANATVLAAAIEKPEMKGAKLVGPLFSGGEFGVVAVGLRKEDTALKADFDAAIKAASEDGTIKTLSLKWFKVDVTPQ
Method: (§1) Binding of ligands to OccJ, NocT, LAO and protein mutants was monitored by autofluorescence by exciting the protein at a wavelength of 295 nm and monitoring the quenching of fluorescence emission of tryptophans at 335 nm. All experiments were performed at 20 °C in 96 wells plates (1/2 Area Plate-96F, Perkin Elmer) using Tecan Infinite M1000 reader (Tecan), in 50 mM Tris-HCl pH 8.0, 150 mM NaCl buffer with a fixed amount of proteins (1 µM) and increasing concentrations of ligand. […] The data were analysed using Origin® 7 software and fitted to the equation f = ΔFluorescencemax * abs(x)/(K D + abs(x)).

OccJ WT [3] = biological target: T3, OccJ WT (Agrobacterium tumefaciens, UniProt P0A4F8); experiment: biochemical; format: binding
T3 construct: The mature PBP OccJ (256 aa without the signal peptide) expression plasmid was obtained by cloning the occJ gene lacking the first twenty residues; hexahistidine (C); made in house; host or cells: E. coli BL21
T3 sequence (P0A4F8 21-276): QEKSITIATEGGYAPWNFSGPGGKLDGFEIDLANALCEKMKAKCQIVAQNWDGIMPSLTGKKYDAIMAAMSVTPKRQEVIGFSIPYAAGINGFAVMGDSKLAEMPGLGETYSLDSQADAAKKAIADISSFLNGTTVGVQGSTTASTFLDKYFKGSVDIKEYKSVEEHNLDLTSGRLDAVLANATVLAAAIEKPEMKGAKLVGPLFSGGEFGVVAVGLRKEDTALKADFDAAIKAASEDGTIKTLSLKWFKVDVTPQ
Method: as §1

NocT WT [4] = biological target: T4, NocT WT (Agrobacterium fabrum, UniProt P35120); settings: fluorescence titration; octopine and nopaline; ref [6],[14]; read-out: K D (F); cited from earlier work
T4 construct: Cloning of mature OccJ, NocT-G97S, OccJ-S91G, OccJ-N202D, LAO and LAO-Q122A; made in house
T4 sequence (P35120 26-283): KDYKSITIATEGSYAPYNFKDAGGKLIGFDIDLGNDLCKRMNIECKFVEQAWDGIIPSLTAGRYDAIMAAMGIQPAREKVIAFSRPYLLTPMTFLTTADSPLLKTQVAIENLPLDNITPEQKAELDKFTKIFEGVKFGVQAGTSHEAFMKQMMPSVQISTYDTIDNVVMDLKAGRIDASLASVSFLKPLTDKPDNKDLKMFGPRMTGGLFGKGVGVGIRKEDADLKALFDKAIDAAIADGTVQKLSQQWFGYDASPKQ

OccJ WT [5] = biological target: T3, OccJ WT; experiment: OccJ WT ligand binding, isothermal titration microcalorimetry; settings: ITC, 20 °C
Method: (§2) Isothermal titration microcalorimetry experiments were performed with an ITC200 isothermal titration calorimeter from MicroCal (GE Healthcare). The experiments were carried out at 20 °C. Protein concentration in the microcalorimeter cell (0.2 mL) varied from 20 to 150 µM. Nineteen injections of 2 µL of ligand solution (amino acids, opines and octopine derivatives) at concentration ranging from 240 µM to 1.5 mM were performed at intervals of 180 s while stirring at 500 rpm. The experimental data were fitted to theoretical titration curves with software supplied by MicroCal (ORIGIN®). This software uses the relationship between the heat generated by each injection and ΔH (enthalpy change in kcal/mol), Ka (the association binding constant in M^−1), n (the number of binding sites), total protein concentration and free and total ligand concentrations.

NocT WT [6] = biological target: T4, NocT WT; format: binding, Agrobacterium tumefaciens; settings: ITC, 20 °C
Method: as §2

NocT WT [7] = biological target: T4, NocT WT; format: binding, Agrobacterium tumefaciens; settings: fluorescence titration; 20 °C; pH 8.0; octopine family members and analogues; read-out: Kd (F)
Method: as §1

NocT G97S [8] = format: binding, Agrobacterium tumefaciens
OccJ N202D [9] = biological target: T5, OccJ N202D (Agrobacterium tumefaciens, UniProt P0A4F8, N202D); format: binding; settings: ITC, 20 °C
T5 construct: The mature LAO expression plasmid, LAO-Q122A, OccJ-S91G and OccJ-N202D were chemically synthesized; pET-28a); host or cells: E. coli BL21
T5 sequence (P0A4F8 21-276 N202D): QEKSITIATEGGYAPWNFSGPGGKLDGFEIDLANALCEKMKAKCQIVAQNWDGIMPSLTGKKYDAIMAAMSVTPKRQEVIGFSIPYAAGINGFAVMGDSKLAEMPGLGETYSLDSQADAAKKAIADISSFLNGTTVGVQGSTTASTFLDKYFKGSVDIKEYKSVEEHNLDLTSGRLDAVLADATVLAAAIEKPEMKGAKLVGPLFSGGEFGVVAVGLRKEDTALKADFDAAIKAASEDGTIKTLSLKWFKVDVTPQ
Method: as §2

OccJ S91G [10] = biological target: T2, OccJ S91G; format: binding; settings: ITC, 20 °C
Method: as §2

OccJ N202D [11] = biological target: T5, OccJ N202D; format: binding; settings: intrinsic protein fluorescence titration; 20 °C; pH 8.0; read-out: K D (F)
LAO Q122A = biological target: T6, LAO Q122A (Salmonella typhimurium, UniProt P02911, Q144A); experiment: LAO Q122A ligand binding, ITC; design: species or system Salmonella enterica; settings: ITC, 20 °C
T6 construct: The mature LAO expression plasmid, LAO-Q122A, OccJ-S91G and OccJ-N202D were chemically synthesized; pET-28a); host or cells: E. coli BL21
T6 sequence (P02911 23-260 Q144A): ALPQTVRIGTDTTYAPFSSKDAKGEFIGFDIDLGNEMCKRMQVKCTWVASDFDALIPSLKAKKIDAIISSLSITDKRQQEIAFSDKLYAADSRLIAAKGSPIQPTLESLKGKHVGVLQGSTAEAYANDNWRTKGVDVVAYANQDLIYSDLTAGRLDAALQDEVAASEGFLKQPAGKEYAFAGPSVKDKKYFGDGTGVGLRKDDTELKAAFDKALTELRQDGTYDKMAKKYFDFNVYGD
Method: as §2

NocT G97S [12] = biological target: T1, NocT G97S; format: binding, Agrobacterium tumefaciens; settings: ITC, 20 °C
Method: as §2

NocT WT [13] = biological target: T4, NocT WT; settings: ITC; octopine; ref [6],[14]; read-out: K D (ITC) (converted); cited from earlier work
LAO WT = biological target: T7, LAO WT (Salmonella typhimurium, UniProt P02911); experiment: biochemical; format: binding, Salmonella enterica; settings: ITC, 20 °C
T7 construct: The mature LAO expression plasmid, LAO-Q122A, OccJ-S91G and OccJ-N202D were chemically synthesized; pET-28a); host or cells: E. coli BL21
T7 sequence (P02911 23-260): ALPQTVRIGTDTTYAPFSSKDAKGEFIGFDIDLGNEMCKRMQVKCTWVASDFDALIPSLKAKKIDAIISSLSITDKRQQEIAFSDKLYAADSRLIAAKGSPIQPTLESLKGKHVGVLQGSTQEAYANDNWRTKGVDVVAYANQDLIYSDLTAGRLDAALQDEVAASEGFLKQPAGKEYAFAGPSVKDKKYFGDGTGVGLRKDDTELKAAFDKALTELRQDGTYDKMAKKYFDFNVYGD
Method: as §2

LAO = biological target: LAO; design: method as in PMID 1400387; settings: ref [20]; cited from earlier work
[14] = intrinsic protein fluorescence titration, 20 °C, 50 mM Tris-HCl pH 8.0, 150 mM NaCl, 1 µM protein, read-out: K D (F)
[15] = fluorescence titration, read-out: apparent dissociation constant K D

Q: Which results are given for `NC(N)=NCCC[C@H](N[C@H](CCC(=O)O)C(=O)O)C(=O)O` [nopaline]?
A: K D (F) (NocT G97S [1]): abolished the nopaline binding ability; K D (F) (OccJ S91G [2]; 20 °C, pH 8.0): not a ligand; K D (F) (OccJ WT [3]; intrinsic protein fluorescence titration, 20 °C, 50 mM Tris-HCl pH 8.0, 150 mM NaCl, 1 µM protein): No fluorescence intensity change was detected; also recorded: no interaction; Kd (NocT WT [4]): 3.7 ± 0.6 µM

Q: Which “Enthalpy (ΔH)” value (OccJ WT [5]) does the source give for `NC(N)=NCCC[C@H](NCC(=O)O)C(=O)O` [noroctopine] here?
A: -4.804 kcal/mol

Q: And the “Entropic contribution (-TΔS)” value (OccJ WT [5])?
A: -4.367 kcal/mol

Q: And the “Entropy (ΔS)” value (OccJ WT [5])?
A: 14.8 cal/mol/deg

Q: And the “Free enthalpy (ΔG)” value (OccJ WT [5])?
A: -9.171 kcal/mol

Q: And the Kd (OccJ WT [5])?
A: 0.15 ± 0.01 µM

Q: What about the Kd (OccJ WT [3]; [14]) of the same compound?
A: 0.19 ± 0.05 µM

Q: And the “fold better affinity of OccJ compared with arginine or ornithine alone” value (OccJ WT [3]; opine analogue versus its amino acid)?
A: 10 fold

Q: And the “Enthalpy (ΔH)” value (NocT WT [6])?
A: 0.872 kcal/mol

Q: And the “Entropic contribution (-TΔS)” value (NocT WT [6])?
A: -6.39 kcal/mol

Q: And the “Entropy (ΔS)” value (NocT WT [6])?
A: 21.8 cal/mol/deg

Q: And the “Free enthalpy (ΔG)” value (NocT WT [6])?
A: -5.518 kcal/mol

Q: What about the Kd (NocT WT [6]) of the same compound?
A: 78 ± 9 µM

Q: What about the Kd (NocT WT [7]) of the same compound?
A: 33.4 ± 2.7 µM

Q: With `NCCC[C@H](NCC(=O)O)C(=O)O` [noroctopinic acid] as the compound, how does the “Enthalpy (ΔH)” value (OccJ WT [5]) read?
A: -7.202 kcal/mol

Q: And the “Entropic contribution (-TΔS)” value (OccJ WT [5])?
A: -1.934 kcal/mol

Q: What about the “Entropy (ΔS)” value (OccJ WT [5]) of the same compound?
A: 6.60 cal/mol/deg

Q: What about the “Free enthalpy (ΔG)” value (OccJ WT [5]) of the same compound?
A: -9.136 kcal/mol

Q: And the Kd (OccJ WT [5])?
A: 0.15 ± 0.01 µM

Q: What about the “Enthalpy (ΔH)” value (NocT WT [6]) of the same compound?
A: 0.62 kcal/mol

Q: What about the “Entropic contribution (-TΔS)” value (NocT WT [6]) of the same compound?
A: -6.83 kcal/mol

Q: What about the “Entropy (ΔS)” value (NocT WT [6]) of the same compound?
A: 23.3 cal/mol/deg

Q: What about the “Free enthalpy (ΔG)” value (NocT WT [6]) of the same compound?
A: -6.21 kcal/mol

Q: What about the Kd (NocT WT [6]) of the same compound?
A: 23 ± 5 µM

Q: And the Kd (NocT WT [7])?
A: 19.3 ± 1.37 µM

Q: What does the source list for `C[C@@H](N[C@@H](CCCN=C(N)N)C(=O)O)C(=O)O` [octopine]?
A: fold lower affinity of NocT G97S compared with the WT (NocT G97S [8]): 10 fold; Kd (NocT G97S [1]; read-out: K D (F)): 63.8 ± 13.8 µM; fold lower affinity of OccJ-S91G than OccJ (OccJ S91G [2]): over 7,000 fold; Kd (OccJ S91G [2]; 20 °C, pH 8.0, read-out: K D (F)): 29.9 ± 3.8 µM; Enthalpy (ΔH) (OccJ N202D [9]): -4.12 kcal/mol; Entropic contribution (-TΔS) (OccJ N202D [9]): -6.345 kcal/mol; Entropy (ΔS) (OccJ N202D [9]): 21.5 cal/mol/deg; Free enthalpy (ΔG) (OccJ N202D [9]): -10.465 kcal/mol; Kd (OccJ N202D [9]): 0.016 µM; Enthalpy (ΔH) (OccJ S91G [10]): -0.726 kcal/mol; Entropic contribution (-TΔS) (OccJ S91G [10]): -5.569 kcal/mol; Entropy (ΔS) (OccJ S91G [10]): 19 cal/mol/deg; Free enthalpy (ΔG) (OccJ S91G [10]): -6.295 kcal/mol; Kd (OccJ S91G [10]): 20 µM; Kd (OccJ N202D [11]): 0.006 ± 0.001 µM; Enthalpy (ΔH) (OccJ WT [5]): -4.837 kcal/mol; Entropic contribution (-TΔS) (OccJ WT [5]): -5.98 kcal/mol; Entropy (ΔS) (OccJ WT [5]): 20.4 cal/mol/deg; Free enthalpy (ΔG) (OccJ WT [5]): -10.817 kcal/mol; Kd (OccJ WT [5]): 0.009 µM; Kd (OccJ WT [3]; [15]): 0.004 ± 0.001 µM; Kd (OccJ WT [3]; [14]): 0.004 ± 0.0001 µM; Enthalpy (ΔH) (LAO Q122A): -3.318 kcal/mol; Entropic contribution (-TΔS) (LAO Q122A): -2.673 kcal/mol; Entropy (ΔS) (LAO Q122A): 9.12 cal/mol/deg; Free enthalpy (ΔG) (LAO Q122A): -5.991 kcal/mol; Kd (LAO Q122A; read-out: K D (ITC)): 34 ± 5 µM; Kd (NocT WT [4]): 6.1 ± 0.7 µM; Enthalpy (ΔH) (NocT G97S [12]): 0.687 kcal/mol; Entropic contribution (-TΔS) (NocT G97S [12]): -6.42 kcal/mol; Entropy (ΔS) (NocT G97S [12]): 21.9 cal/mol/deg; Free enthalpy (ΔG) (NocT G97S [12]): -5.733 kcal/mol; Kd (NocT G97S [12]): 52 µM; Kd (NocT WT [13]): 9.9 µM; K D (ITC) (LAO WT): No interaction; also recorded: cannot bind

Q: With `C[C@@H](N[C@@H](CCCN)C(=O)O)C(=O)O` [octopinic acid] as the compound, how does the “Enthalpy (ΔH)” value (OccJ WT [5]) read?
A: -9.547 kcal/mol

Q: What about the “Entropic contribution (-TΔS)” value (OccJ WT [5]) of the same compound?
A: -0.41 kcal/mol

Q: What about the “Entropy (ΔS)” value (OccJ WT [5]) of the same compound?
A: 1.40 cal/mol/deg

Q: And the “Free enthalpy (ΔG)” value (OccJ WT [5])?
A: -9.957 kcal/mol

Q: And the Kd (OccJ WT [5])?
A: 0.038 ± 0.007 µM

Q: And the Kd (OccJ WT [3]; [15])?
A: 0.017 ± 0.003 µM

Q: And the Kd (OccJ WT [3]; [14])?
A: 0.017 ± 0.003 µM

Q: And the “Enthalpy (ΔH)” value (NocT WT [6])?
A: -3.658 kcal/mol

Q: What about the “Entropic contribution (-TΔS)” value (NocT WT [6]) of the same compound?
A: -3.517 kcal/mol

Q: What about the “Entropy (ΔS)” value (NocT WT [6]) of the same compound?
A: 12.0 cal/mol/deg

Q: What about the “Free enthalpy (ΔG)” value (NocT WT [6]) of the same compound?
A: -7.175 kcal/mol

Q: And the Kd (NocT WT [6])?
A: 4.4 ± 0.4 µM

Q: What about the Kd (NocT WT [7]) of the same compound?
A: 1.8 ± 0.3 µM

Q: Which results are given for `NCCC[C@H](N)C(=O)O` [ornithine]?
A: K D (F) (OccJ S91G [2]; 20 °C, pH 8.0): can no longer bind; Enthalpy (ΔH) (OccJ WT [5]): -1.102 kcal/mol; Entropic contribution (-TΔS) (OccJ WT [5]): -4.778 kcal/mol; Entropy (ΔS) (OccJ WT [5]): 16.3 cal/mol/deg; Free enthalpy (ΔG) (OccJ WT [5]): -5.88 kcal/mol; Kd (OccJ WT [5]): 40.5 µM; Kd (OccJ WT [3]): 31.2 ± 3.5 µM; previous reported affinity (LAO): nanomolar range

Q: For homo-octopine, which “Enthalpy (ΔH)” value (OccJ WT [5]) is on record?
A: -7.611 kcal/mol

Q: What about the “Entropic contribution (-TΔS)” value (OccJ WT [5]) of the same compound?
A: -0.806 kcal/mol

Q: And the “Entropy (ΔS)” value (OccJ WT [5])?
A: 2.75 cal/mol/deg

Q: And the “Free enthalpy (ΔG)” value (OccJ WT [5])?
A: -8.417 kcal/mol

Q: What about the “Enthalpy (ΔH)” value (NocT WT [6]) of the same compound?
A: -3.832 kcal/mol

Q: What about the “Entropic contribution (-TΔS)” value (NocT WT [6]) of the same compound?
A: -2.222 kcal/mol

Q: And the “Entropy (ΔS)” value (NocT WT [6])?
A: 7.58 cal/mol/deg

Q: What about the “Free enthalpy (ΔG)” value (NocT WT [6]) of the same compound?
A: -6.054 kcal/mol
